In patent US10787452B2 (Vertex Pharmaceuticals Incorporated, priority 2012, dated 2020):

Test system: HCT116 colorectal cancer cells
Assay: Cisplatin sensitization assay (96 h cell viability MTS);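 also: compound concentration needed to lower the Cisplatin-alone IC50 by a set fold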
Format: cell-based
Settings: 96 h MTS, compound plus Cisplatin
Outline: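 Simultaneous addition of compound and cisplatin (2-fold series, top 10 μM final, full matrix), followed by 96 h culture at 37° C/5% CO2 and a 1 h MTS viability read.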

Compound	Cisplatin Sensitization Assay
CN(C)CCOc1ccncc1NC(=O)c1c(N)nn2cc(CC#N)cnc12 [I-O-24, 2-amino-6-(cyanomethyl)-N-(4-(2-(dimethylamino)ethoxy)pyridin-3-yl)pyrazolo[1,5-a]pyrimidine-3-carboxamide]	++ (Compounds with a Cisplatin sensitization value >0.02 μM but <0.2 μM are marked with “++.”)
Nc1nn2cc(F)cnc2c1C(=O)Nc1cnccc1N1CCN2C(=O)CC[C@@H]2C1 [I-N-258, (R)-2-amino-6-fluoro-N-(4-(6-oxohexahydropyrrolo[1,2-a]pyrazin-2(1H)-yl)pyridin-3-yl)pyrazolo[1,5-a]pyrimidine-3-carboxamide]	++ (Compounds with a Cisplatin sensitization value >0.02 μM but <0.2 μM are marked with “++.”)
CN1CC(NC(=O)C2CCN(c3c(F)cncc3NC(=O)c3c(N)nn4cc(F)cnc34)CC2)C1 [I-G-23, 2-amino-6-fluoro-N-(5-fluoro-4-(4-((1-methylazetidin-3-yl)carbamoyl)piperidin-1-yl)pyridin-3-yl)pyrazolo[1,5-a]pyrimidine-3-carboxamide]	+++ (Compounds with a Cisplatin sensitization value of <0.02 μM are marked with “+++.”)
CN1CCN(C(=O)C2CCN(c3c(F)cncc3NC(=O)c3c(N)nn4cc(F)cnc34)CC2)CC1(C)C [I-G-15, 2-amino-6-fluoro-N-(5-fluoro-4-(4-(3,3,4-trimethylpiperazine-1-carbonyl)piperidin-1-yl)pyridin-3-yl)pyrazolo[1,5-a]pyrimidine-3-carboxamide]	+++ (Compounds with a Cisplatin sensitization value of <0.02 μM are marked with “+++.”)
CN(C)CC1CCN(c2ccncc2NC(=O)c2c(N)nn3cc(Cl)cnc23)CC1 [I-N-45, 2-amino-6-chloro-N-(4-(4-((dimethylamino)methyl)piperidin-1-yl)pyridin-3-yl)pyrazolo[1,5-a]pyrimidine-3-carboxamide]	++ (Compounds with a Cisplatin sensitization value >0.02 μM but <0.2 μM are marked with “++.”)
CC(C)(C)NC(=O)C1CCN(c2c(F)cncc2NC(=O)c2c(N)nn3cc(F)cnc23)CC1 [I-G-19, 2-amino-N-(4-(4-(tert-butylcarbamoyl)piperidin-1-yl)-5-fluoropyridin-3-yl)-6-fluoropyrazolo[1,5-a]pyrimidine-3-carboxamide]	++ (Compounds with a Cisplatin sensitization value >0.02 μM but <0.2 μM are marked with “++.”)
N#CCc1cnc2c(C(=O)Nc3cnccc3OCCO)c(N)nn2c1 [I-O-33, 2-amino-6-(cyanomethyl)-N-(4-(2-hydroxyethoxy)pyridin-3-yl)pyrazolo[1,5-a]pyrimidine-3-carboxamide]	++ (Compounds with a Cisplatin sensitization value >0.02 μM but <0.2 μM are marked with “++.”)
N#CCc1cnc2c(C(=O)Nc3cnccc3N3CCOCC3)c(N)nn2c1 [I-N-81, 2-amino-6-(cyanomethyl)-N-(4-morpholinopyridin-3-yl)pyrazolo[1,5-a]pyrimidine-3-carboxamide]	+++ (Compounds with a Cisplatin sensitization value of <0.02 μM are marked with “+++.”)
CC1(C)CN(C(=O)C2CCN(c3c(F)cncc3NC(=O)c3c(N)nn4cc(F)cnc34)CC2)CCN1 [I-G-27, 2-amino-N-(4-(4-(3,3-dimethylpiperazine-1-carbonyl)piperidin-1-yl)-5-fluoropyridin-3-yl)-6-fluoropyrazolo[1,5-a]pyrimidine-3-carboxamide]	++ (Compounds with a Cisplatin sensitization value >0.02 μM but <0.2 μM are marked with “++.”)
Nc1nn2cc(F)cnc2c1C(=O)Nc1cnccc1N1CCOCC1 [I-N-141, 2-amino-6-fluoro-N-(4-morpholinopyridin-3-yl)pyrazolo[1,5-a]pyrimidine-3-carboxamide]	+++ (Compounds with a Cisplatin sensitization value of <0.02 μM are marked with “+++.”)
Nc1nn2cc(F)cnc2c1C(=O)Nc1cncc(F)c1N1CCS(=O)(=O)CC1 [I-N-250, 2-amino-N-(4-(1,1-dioxidothiomorpholino)-5-fluoropyridin-3-yl)-6-fluoropyrazolo[1,5-a]pyrimidine-3-carboxamide]	++ (Compounds with a Cisplatin sensitization value >0.02 μM but <0.2 μM are marked with “++.”)
Nc1nn2cc(F)cnc2c1C(=O)Nc1cnccc1C1CC1 [I-C-42, 2-amino-N-(4-cyclopropylpyridin-3-yl)-6-fluoropyrazolo[1,5-a]pyrimidine-3-carboxamide]	++ (Compounds with a Cisplatin sensitization value >0.02 μM but <0.2 μM are marked with “++.”)
N#CC1CN(C(=O)C2CCN(c3c(F)cncc3NC(=O)c3c(N)nn4cc(F)cnc34)CC2)C1 [I-G-76, 2-amino-N-(4-(4-(3-cyanoazetidine-1-carbonyl)piperidin-1-yl)-5-fluoropyridin-3-yl)-6-fluoropyrazolo[1,5-a]pyrimidine-3-carboxamide]	+++ (Compounds with a Cisplatin sensitization value of <0.02 μM are marked with “+++.”)
Cc1cncc(NC(=O)c2c(N)nn3cc(F)cnc23)c1-n1nccc1C [I-N-237]	+ (Compounds with a Cisplatin sensitization value >0.2 μM but <5 μM are marked with “+.”)
Nc1nn2cc(Cl)cnc2c1C(=O)Nc1cnccc1Oc1cccnc1 [I-O-70, 2-amino-6-chloro-N-(4-(pyridin-3-yloxy)pyridin-3-yl)pyrazolo[1,5-a]pyrimidine-3-carboxamide]	+++ (Compounds with a Cisplatin sensitization value of <0.02 μM are marked with “+++.”)
Cc1ncn(-c2ccncc2NC(=O)c2c(N)nn3cc(F)cnc23)c1C [I-N-269, 2-amino-N-(4-(4,5-dimethyl-1H-imidazol-1-yl)pyridin-3-yl)-6-fluoropyrazolo[1,5-a]pyrimidine-3-carboxamide]	++ (Compounds with a Cisplatin sensitization value >0.02 μM but <0.2 μM are marked with “++.”)
CS(=O)(=O)N1CCN(c2ccncc2NC(=O)c2c(N)nn3cc(F)cnc23)CC1 [I-N-178, 2-amino-6-fluoro-N-(4-(4-(methylsulfonyl)piperazin-1-yl)pyridin-3-yl)pyrazolo[1,5-a]pyrimidine-3-carboxamide]	+++ (Compounds with a Cisplatin sensitization value of <0.02 μM are marked with “+++.”)
Nc1nn2cc(Cl)cnc2c1C(=O)Nc1cnccc1OCCCO [I-O-53, 2-amino-6-chloro-N-(4-(3-hydroxypropoxy)pyridin-3-yl)pyrazolo[1,5-a]pyrimidine-3-carboxamide]	+++ (Compounds with a Cisplatin sensitization value of <0.02 μM are marked with “+++.”)
Nc1nn2cc(F)cnc2c1C(=O)Nc1cncc(F)c1OC1CCN(C2COC2)CC1 [I-O-91, 2-amino-6-fluoro-N-(5-fluoro-4-((1-(oxetan-3-yl)piperidin-4-yl)oxy)pyridin-3-yl)pyrazolo[1,5-a]pyrimidine-3-carboxamide]	++ (Compounds with a Cisplatin sensitization value >0.02 μM but <0.2 μM are marked with “++.”)
Nc1nn2cc(Cl)cnc2c1C(=O)Nc1cnccc1O[C@@H]1CCCNC1 [I-O-81, (R)-2-amino-6-chloro-N-(4-(piperidin-3-yloxy)pyridin-3-yl)pyrazolo[1,5-a]pyrimidine-3-carboxamide]	++ (Compounds with a Cisplatin sensitization value >0.02 μM but <0.2 μM are marked with “++.”)
N#CCc1cnc2c(C(=O)Nc3cnccc3N3CCNCC3)c(N)nn2c1 [I-N-89, 2-amino-6-(cyanomethyl)-N-(4-(piperazin-1-yl)pyridin-3-yl)pyrazolo[1,5-a]pyrimidine-3-carboxamide]	++ (Compounds with a Cisplatin sensitization value >0.02 μM but <0.2 μM are marked with “++.”)
Cc1cncc(NC(=O)c2c(N)nn3cc(F)cnc23)c1N1CCN(C2COC2)CC1 [I-N-16, 2-amino-6-fluoro-N-(5-methyl-4-(4-(oxetan-3-yl)piperazin-1-yl)pyridin-3-yl)pyrazolo[1,5-a]pyrimidine-3-carboxamide]	+++ (Compounds with a Cisplatin sensitization value of <0.02 μM are marked with “+++.”)
Cc1nc(C)n(-c2ccncc2NC(=O)c2c(N)nn3cc(F)cnc23)n1 [I-N-218, 2-amino-N-(4-(3,5-dimethyl-1H-1,2,4-triazol-1-yl)pyridin-3-yl)-6-fluoropyrazolo[1,5-a]pyrimidine-3-carboxamide]	+ (Compounds with a Cisplatin sensitization value >0.2 μM but <5 μM are marked with “+.”)
CO[C@H]1CCN(C(=O)C2CCN(c3ccncc3NC(=O)c3c(N)nn4cc(F)cnc34)CC2)C1 [I-G-94, (S)-2-amino-6-fluoro-N-(4-(4-(3-methoxypyrrolidine-1-carbonyl)piperidin-1-yl)pyridin-3-yl)pyrazolo[1,5-a]pyrimidine-3-carboxamide]	+++ (Compounds with a Cisplatin sensitization value of <0.02 μM are marked with “+++.”)
Nc1nn2cc(Cl)cnc2c1C(=O)Nc1cnccc1N1CCC(N2CC[S+]([O-])CC2)CC1 [I-N-100, 2-amino-6-chloro-N-(4-(4-(1-oxidothiomorpholino)piperidin-1-yl)pyridin-3-yl)pyrazolo[1,5-a]pyrimidine-3-carboxamide]	++ (Compounds with a Cisplatin sensitization value >0.02 μM but <0.2 μM are marked with “++.”)
Cn1ccnc1-c1ccncc1NC(=O)c1c(N)nn2cc(F)cnc12 [I-C-55, 2-amino-6-fluoro-N-(4-(1-methyl-1H-imidazol-2-yl)pyridin-3-yl)pyrazolo[1,5-a]pyrimidine-3-carboxamide]	+ (Compounds with a Cisplatin sensitization value >0.2 μM but <5 μM are marked with “+.”)
CN1CC(N2CCN(C(=O)C3CCN(c4c(F)cncc4NC(=O)c4c(N)nn5cc(F)cnc45)CC3)CC2)C1 [I-G-96, 2-amino-6-fluoro-N-(5-fluoro-4-(4-(4-(1-methylazetidin-3-yl)piperazine-1-carbonyl)piperidin-1-yl)pyridin-3-yl)pyrazolo[1,5-a]pyrimidine-3-carboxamide]	+++ (Compounds with a Cisplatin sensitization value of <0.02 μM are marked with “+++.”)
